The source of these data is the supplement of paper PMC10307832.

What all share (test): relative viability (nuclei count vs DMSO), 5 days (fraction); higher = more cells survive
Compound in the test “XMD13-2 + Phenformin”: C1CC1C(=O)NC2=NNC3=C2C=CC(=C3)C4=CC(=CC=C4)C(=O)NC5CC5 [XMD13-2] + N=C(N)NC(=N)NCCc1ccccc1 [Phenformin] (partner 250 µM)
In outline: (§1)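 Values are medians from duplicate plates. Each reflects relative viability, defined as the nuclei count of treated wells over that of vehicle wells. Lung cancer cell lines in 1536-well plates were pin-tool dosed one day after seeding with one drug alone or with a fixed anchor-drug dose plus five library-drug doses (not always all listed) in √10 steps, then fixed, stained and imaged at 4× after 5 days.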

Compound in the test “XMD13-2 + Vorinostat”: C1CC1C(=O)NC2=NNC3=C2C=CC(=C3)C4=CC(=CC=C4)C(=O)NC5CC5 [XMD13-2] + O=C(CCCCCCC(=O)Nc1ccccc1)NO [Vorinostat] (partner 1 µM)
In outline:
as §1

Compound in the test “Dasatinib + Navitoclax”: Cc1nc(Nc2ncc(C(=O)Nc3c(C)cccc3Cl)s2)cc(N2CCN(CCO)CC2)n1 [Dasatinib] + CC1(C)CCC(c2ccc(Cl)cc2)=C(CN2CCN(c3ccc(C(=O)NS(=O)(=O)c4ccc(N[C@H](CCN5CCOCC5)CSc5ccccc5)c(S(=O)(=O)C(F)(F)F)c4)cc3)CC2)C1 [Navitoclax] (partner 0.5 µM)
In outline:
as §1

Compound in the test “Dasatinib + Olaparib”: Cc1nc(Nc2ncc(C(=O)Nc3c(C)cccc3Cl)s2)cc(N2CCN(CCO)CC2)n1 [Dasatinib] + O=C(c1cc(Cc2n[nH]c(=O)c3ccccc23)ccc1F)N1CCN(C(=O)C2CC2)CC1 [Olaparib] (partner 8 µM)
An outline of the steps:
as §1

As to UMC-11, the relative viability amounted to 0.362 in the test with XMD13-2 + Phenformin (first compound 0.05 µM); 0.314 in the test with XMD13-2 + Phenformin (first compound 0.1581 µM); 0.337 in the test with XMD13-2 + Phenformin (first compound 0.5 µM); 0.317 in the test with XMD13-2 + Phenformin (first compound 1.581 µM); 0.285 in the test with XMD13-2 + Phenformin (first compound 5 µM); 0.356 with XMD13-2 + Vorinostat (first compound 0.05 µM). Also, the relative viability with XMD13-2 + Vorinostat (first compound 0.1581 µM) amounted to 0.413; in the test with XMD13-2 + Vorinostat (first compound 0.5 µM), 0.459; with XMD13-2 + Vorinostat (first compound 1.581 µM) it was 0.396; in the test with XMD13-2 + Vorinostat (first compound 5 µM) it was 0.318; with Dasatinib + Navitoclax (first compound 0.005 µM), 0.308; in the test with Dasatinib + Navitoclax (first compound 0.01581 µM), 0.247. The relative viability in the test with Dasatinib + Navitoclax (first compound 0.05 µM) is 0.275; with Dasatinib + Navitoclax (first compound 0.1581 µM), 0.246; with Dasatinib + Navitoclax (first compound 0.5 µM), 0.241; with Dasatinib + Olaparib (first compound 0.005 µM) it was 0.542; with Dasatinib + Olaparib (first compound 0.01581 µM), 0.377; with Dasatinib + Olaparib (first compound 0.05 µM), 0.427. Further, the relative viability in the test with Dasatinib + Olaparib (first compound 0.1581 µM) amounted to 0.272; with Dasatinib + Olaparib (first compound 0.5 µM) it was 0.247.
